These results are taken from patent US10711006B2, “Selective Bruton's tyrosine kinase inhibitor and use thereof” (HANGZHOU HERTZ PHARMACEUTICAL CO., LTD., priority 2016, dated 2020).

A value given as a limit tells only on which side of the number the result lay.

The target in one series is hERG potassium channel (Homo sapiens (Human), UniProt Q12809). The experiment in a line: hERG potassium channel inhibitory activity, manual patch clamp in CHO cells. Format: cell-based. Conditions: for IC50: CHO cells stably expressing hERG, whole-cell patch clamp.
In the next series the target is FGR (Homo sapiens (Human), UniProt P09769). The experiment in a line: Kinase selectivity experiment, FGR. Format: biochemical. Conditions: read-out: Inhibitory activity against FGR (IC50). As for the experimental part: (§1) A 1× kinase base buffer and a reaction stop buffer for respective kinases in the experiment were prepared as required.
(§2) Preparation of Compounds to be Tested:
(§3) 2) diluting each compound at a 5-fold concentration gradient in a 96-well plate to 6 to 7 concentrations and ensuring that the drug volume in each well was 10 μl; and at the same time adding 100 μl of DMSO to prepare a blank control group and also preparing a negative control group without the enzyme substrate; and
(§4) 3) preparing another 96-well plate, adding 10 μl of each of the above compounds to 90 μl of the 1× kinase base buffer and mixing for 10 minutes to be uniform.
(§5) Preparation of the Plate to be Tested:
(§6) 1) 5 μl of the mixed solution prepared as above in the 96-well plate was taken and transferred to a 384-well plate, with two replicate wells for each compound.
(§7) 1) Preparing a 2.5× kinase solution and adding a corresponding 1× kinase base buffer;
(§8) 2) preparing a 2.5× polypeptide solution and adding FAM-labeled polypeptide and ATP in the 1× kinase base buffer; and
(§9) 3) adding 10 μl of 2.5× kinase solution to a 384-well plate to be tested, placing in a room-temperature environment for 10 minutes, and then adding 10 μl of the 2.5× polypeptide solution, reacting at 28° C. for 1 hour, and then adding 25 μl of a reaction stop buffer.
(§10) The Caliper program reads the plate and uses the data to obtain the IC50 values of the corresponding compounds against kinases.

The target in the next series is HCK (Homo sapiens (Human), UniProt P08631). The experiment in a line: Kinase selectivity experiment, HCK. It counts as biochemical. Conditions: read-out: Inhibitory activity against HCK (IC50). On the procedure: as §1, §2, §3, §4, §5, §6, §7, §8, §9, §10
The nature of series [1]: Oral pharmacokinetic experiment in SD rats. Conditions: for oral bioavailability relative to ibrutinib: oral 10 mg/kg; for AUC0-C(ng/h/mL) / AUC0-t (ng/h/mL) / Cmax / Tmax / half-life: oral (intragastric) 10 mg/kg; for AUC0-C(ng/h/mL) / AUC0-t (ng/h/mL) / bioavailability / Cmax / Tmax / half-life: mean n = 3; for bioavailability / Cmax / Tmax / half-life: rat, plasma; for bioavailability: oral 10 mg/kg vs intravenous 2 mg/kg. It counts as in vivo. As for the experimental part:
SD rats were used as experimental animals and were subjected to intragastric administration in a dose of 10 mg/kg and tail-vein intravenous injection in a dose of 2 mg/kg. The tail-vein blood sampling time points in the intragastric administration were 0.17, 0.33, 0.5, 1, 1.5, 2, 4, 6, 8, 12, and 24 hours; the blood sampling time points in the intravenous administration were 0.05, 0.1, 0.17, 0.5, 1, 2, 4, 6, 8, 12, and 24 hours. 0.3 ml of whole blood was taken, and 0.1 ml of plasma after centrifugation was taken and analyzed by LC-MS.

Series [2] has as its system human mantle cell lymphoma (MINO). The experiment in a line: In-vitro tumor cell proliferation inhibition (CCK-8), MINO. Conditions: 72 h, read-out: Tumor cell proliferation inhibitory activity (IC50, μM) MINO.

Chain of hERG potassium channel (Q12809 whole entry): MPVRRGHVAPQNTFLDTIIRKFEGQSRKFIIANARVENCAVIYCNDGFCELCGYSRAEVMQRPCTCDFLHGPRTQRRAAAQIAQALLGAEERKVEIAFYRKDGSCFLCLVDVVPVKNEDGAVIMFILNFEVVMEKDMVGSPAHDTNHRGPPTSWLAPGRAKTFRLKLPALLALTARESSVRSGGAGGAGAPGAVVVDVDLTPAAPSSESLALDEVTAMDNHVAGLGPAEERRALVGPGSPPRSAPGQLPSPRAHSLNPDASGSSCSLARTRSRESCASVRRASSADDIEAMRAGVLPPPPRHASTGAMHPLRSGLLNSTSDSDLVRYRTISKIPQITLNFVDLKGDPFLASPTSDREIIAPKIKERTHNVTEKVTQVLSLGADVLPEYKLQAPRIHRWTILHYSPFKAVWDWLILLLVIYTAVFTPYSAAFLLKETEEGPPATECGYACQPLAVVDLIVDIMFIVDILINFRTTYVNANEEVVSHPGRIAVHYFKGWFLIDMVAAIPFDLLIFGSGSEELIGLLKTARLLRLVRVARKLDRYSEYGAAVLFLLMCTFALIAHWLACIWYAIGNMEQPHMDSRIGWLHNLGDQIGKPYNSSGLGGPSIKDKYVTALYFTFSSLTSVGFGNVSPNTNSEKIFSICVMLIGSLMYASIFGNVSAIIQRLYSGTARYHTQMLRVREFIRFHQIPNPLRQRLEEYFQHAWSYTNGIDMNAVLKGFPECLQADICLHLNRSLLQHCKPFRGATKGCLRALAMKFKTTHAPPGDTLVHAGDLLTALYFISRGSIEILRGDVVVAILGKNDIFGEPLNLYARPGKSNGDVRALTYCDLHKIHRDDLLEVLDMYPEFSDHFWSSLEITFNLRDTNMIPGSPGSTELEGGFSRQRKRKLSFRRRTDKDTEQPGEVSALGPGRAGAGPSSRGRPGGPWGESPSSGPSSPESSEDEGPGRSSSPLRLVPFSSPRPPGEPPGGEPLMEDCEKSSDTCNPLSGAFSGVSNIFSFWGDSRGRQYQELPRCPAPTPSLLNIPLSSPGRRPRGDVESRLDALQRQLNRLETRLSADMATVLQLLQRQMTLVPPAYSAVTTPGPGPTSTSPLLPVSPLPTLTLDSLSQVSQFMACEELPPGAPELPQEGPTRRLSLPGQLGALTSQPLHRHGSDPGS
Chain of HCK (P08631 whole entry, species assumed): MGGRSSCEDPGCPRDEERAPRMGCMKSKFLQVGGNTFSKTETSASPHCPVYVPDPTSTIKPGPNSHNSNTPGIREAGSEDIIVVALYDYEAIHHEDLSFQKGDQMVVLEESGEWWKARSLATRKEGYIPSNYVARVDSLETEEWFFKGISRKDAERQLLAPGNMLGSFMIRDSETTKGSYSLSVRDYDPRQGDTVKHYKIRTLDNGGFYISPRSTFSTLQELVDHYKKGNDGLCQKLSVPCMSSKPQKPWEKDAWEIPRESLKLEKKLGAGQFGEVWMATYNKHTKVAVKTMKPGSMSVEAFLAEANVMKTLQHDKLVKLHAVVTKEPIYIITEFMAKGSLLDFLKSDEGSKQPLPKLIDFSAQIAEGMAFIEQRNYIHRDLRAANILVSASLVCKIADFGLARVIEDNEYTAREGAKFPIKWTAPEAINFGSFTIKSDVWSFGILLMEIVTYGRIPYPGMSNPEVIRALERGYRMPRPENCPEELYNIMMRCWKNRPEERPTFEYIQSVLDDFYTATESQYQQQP
Chain of FGR (P09769 whole entry, species assumed): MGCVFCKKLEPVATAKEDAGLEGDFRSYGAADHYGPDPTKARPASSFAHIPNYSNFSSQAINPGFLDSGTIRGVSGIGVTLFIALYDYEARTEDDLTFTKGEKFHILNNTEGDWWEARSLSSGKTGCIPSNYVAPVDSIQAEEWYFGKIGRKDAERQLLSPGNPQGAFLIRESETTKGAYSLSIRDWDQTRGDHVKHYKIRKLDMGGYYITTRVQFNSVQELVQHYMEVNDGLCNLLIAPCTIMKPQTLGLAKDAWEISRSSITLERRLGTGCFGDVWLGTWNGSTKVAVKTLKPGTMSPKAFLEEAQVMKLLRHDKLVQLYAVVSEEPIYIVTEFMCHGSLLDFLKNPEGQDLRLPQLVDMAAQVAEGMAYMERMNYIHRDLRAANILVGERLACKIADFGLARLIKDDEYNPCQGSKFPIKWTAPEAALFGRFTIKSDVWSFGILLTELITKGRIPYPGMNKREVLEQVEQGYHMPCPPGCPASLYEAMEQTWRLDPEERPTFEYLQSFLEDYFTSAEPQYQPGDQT

As to `C=CC(=O)N1CCC[C@@H](n2nc(-c3ccc(Oc4ccccc4)nc3)c3c(N)ncnc32)C1` [Compound 15a, (R)-1-(3-(4-amino-3-(6-phenoxypyridin-3-yl)-1H-pyrazolo[3,4-d]pyrimidin-1-yl)piperidin-1-yl) prop-2-en-1-one], the IC50 on hERG potassium channel was 15.5 µM. Besides, the “hERG IC50 relative to Compound II” value on hERG potassium channel (IC50 ratio to Compound II) is on record as 2.98 times. Further, on hERG potassium channel (IC50 ratio to ibrutinib), the “hERG IC50 relative to ibrutinib” value is reported as 4.41 times. For the same molecule, the IC50 on FGR was over 1 µM. Also, the IC50 on HCK was over 1 µM. Further, in series [1], the “oral bioavailability relative to ibrutinib” value worked out at 1.67 times, the AUC0-C(ng/h/mL) turned out to be 698 ng·h/mL, the AUC0-t (ng/h/mL) was determined as 624 ng·h/mL and the bioavailability is 20.9%. Besides, in series [1], the peak concentration (Cmax) was found to be 292 ng/mL, the Tmax is 0.333 h and the half-life was 6.17 h. The IC50 in series [2] is 6.17 µM.

Take `C=CC(=O)N1CC[C@@H](n2nc(-c3ccc(Oc4ccccc4)nc3F)c3c(N)ncnc32)C1` [Compound 24a, (R)-1-(3-(4-amino-3-(2-fluoro-6-phenoxypyridin-3-yl)-1H-pyrazolo[3,4-d]pyrimidin-1-yl)pyrrolidin-1-yl)prop-2-en-1-one]: at hERG potassium channel, the IC50 was found to be 7.66 µM. At FGR, the IC50 was over 1 µM. Further, at HCK, the IC50 is over 1 µM. Besides, in series [1], the “oral bioavailability relative to ibrutinib” value is on record as 4.62 times, the AUC0-C(ng/h/mL) was 2140 ng·h/mL, the AUC0-t (ng/h/mL) was found to be 2080 ng·h/mL and the bioavailability is 57.8%. In addition, in series [1], the Cmax came out at 548 ng/mL, the Tmax is 0.75 h and the half-life was 1.7 h. Besides, the IC50 in series [2] was 9.46 µM.
